Source: a melting point compilation (Tetko et al.; mined from patent text by program, amines drawn as free bases though some values may be those of a salt)

melting point | Structure (SMILES)
130 to 131 °C | CCOCn1c(Oc2ccccc2)c(CC)c(=O)[nH]c1=O
225 to 230 °C | CC1CCN(C)c2nc3[nH]c(=O)cc(C(F)(F)F)c3cc21 (stereo not given)
165 to 168 °C | CCNc1ccc(Cc2ccc(NCC)c3ccccc23)c2ccccc12
123 to 127 °C | CN1CCC(c2cn(S(=O)(=O)c3ccccc3)c3ccc(OS(=O)(=O)c4ccccc4)cc23)CC1
136 to 138 °C | O=[N+]([O-])c1ccccc1S(=O)(=O)c1ccc(Cl)cc1
101 to 102 °C | ClCc1cccc2c(-c3ccc(Cl)cc3)nccc12
293 to 296 °C | O=C(Nc1cccc(F)c1)Nc1cnnc(Cl)c1
151 to 153 °C | CNC(=O)C1CC2(CCN(CCCC(=O)c3ccc(F)cc3)C2)c2ccc(Cl)cc21 (stereo not given)
> 260 °C | N#Cc1ccc(-c2ccc(C(=O)O)cn2)cc1
233 to 236 °C | CC(=O)c1ccc(NC(=O)N2CCC3(CC2)CN(S(N)(=O)=O)c2ccccc23)cc1
266 °C | Cc1nc(-c2ccccc2)c(C)c(O)c1C(=O)Nc1nccs1
74.5 to 75.5 °C | CCC(=O)OCC(OC(=O)CC)C1OC(OC(=O)CC)C(OC(=O)CC)C1OC(=O)CC (stereo not given)
178 °C | CN1C(=O)C(=O)N(Cc2ccccc2)CC1(CCOC1CCCCO1)c1ccc(Cl)c(Cl)c1 (stereo not given)
203 to 205 °C | CCOC(=O)c1nn(-c2ccccc2Br)c(=O)c2c(N)scc12
79 to 82 °C | C=C(CC)CNc1cccc(-c2ccnc3c(C(=O)c4cccs4)cnn23)c1
98.5 to 99.6 °C | Cc1cc(C)n(-c2nccc(Nc3cccc(C(F)(F)F)c3)n2)n1
125 °C | CS(=O)(=O)OC(c1cccc(C(OS(C)(=O)=O)(C(F)(F)F)C(F)(F)F)c1)(C(F)(F)F)C(F)(F)F
129 to 130 °C | CCCN(CCC)C(C)C(=O)Nc1cccc2c1C(=O)c1c(NC(=O)C(C)N(CCC)CCC)cccc1C2=O (stereo not given)
194 °C | CN(C)c1nc(NCc2ccc(NC(=O)C3CCN(Cc4ccccc4)CC3)cc2)c2ccc(I)cc2n1
68 to 70 °C | CCC1COC(=O)C(=CC(=O)OC)N1 (stereo not given)
88.5 to 89.5 °C | CCCC(=O)Nc1cc(C(F)(F)F)ccc1SCC#N
92 to 94 °C | CN(C)CCOc1ccc(C=NCCN=Cc2ccc(OCCN(C)C)cc2O)c(O)c1
207 to 208 °C | CC(C)n1nc(-c2sc(NC(=O)c3cc(C(F)(F)F)cc(C(F)(F)F)c3)nc2-c2ccccc2)ccc1=O

melting point | Structure (SMILES)
98 to 98.5 °C | Cc1ccc2ccccc2c1Cn1ccnc1
138 to 140 °C | Cc1cc(Oc2cccc(C(F)(F)F)c2)c(C)cc1N=CNC#N
68 to 76 °C | COC(=O)C(c1ccc(OCCNC(=O)C2Cc3ccccc3N2S(=O)(=O)c2ccc(-c3cccc(C(F)(F)F)c3)cc2)cc1)C(C)C (stereo not given)
155 to 157 °C | COc1ccc2c3c(cn2S(=O)(=O)c2c(C(C)C)cc(C(C)C)cc2C(C)C)C[C@H]2N(C)C(=O)CO[C@]2(C)c13 (relative stereo)
90 °C | O=[N+]([O-])c1c(NCCCO)cccc1NCCCO
> 250 °C | Cc1ccc(S(=O)(=O)Nc2nc(-c3ccc([N+](=O)[O-])cc3)cs2)cc1
124 to 125 °C | O=C1OCCc2ccc([N+](=O)[O-])cc21
278 to 280 °C | CC(=O)NC12Oc3cc(C(C)C)ccc3C1(O)C(=O)c1c(N)cccc12 (stereo not given)
65 to 67 °C | COC(=O)C(C(=O)OC)[C@H]1C=Cc2ccccc2[C@H]1O (relative stereo)
175 to 176 °C | O=C(Nc1ccc(CN2CCC(=O)C(=C3SC=CS3)C2=O)cc1)OCc1ccccc1
184 °C | O=C1Nc2ccccc2C1C(=O)C(F)(F)F (stereo not given)
242 °C | Cc1nc[nH]c1CN1CCC(Nc2nc3ccccc3n2Cc2ccco2)CC1
167 to 168 °C | O=c1ccn(-c2cccc(C(F)(F)F)c2)nc1-c1ccsc1-c1ccccc1
173 to 175 °C | CC(=O)Nc1c([N+](=O)[O-])cc(Br)c2c1CN(C(C)=O)CC2
213 °C | CC1(C)CCC(C)(C)c2cc(CCCO)c(/C=C/c3ccc(C(=O)O)cc3)cc21
95 to 97 °C | N#Cc1ccc(NC(=O)NCCCCl)cc1
70 °C | CCCCC(CC)COC(=O)CC(C(=O)OCC(CC)CCCC)S(=O)(=O)O (stereo not given)
102 to 104 °C | C=CCNC(=O)N1CC(Oc2ccc(C(F)(F)F)cc2Cl)C1
258 °C | N#Cc1c(N2CCN(C(=O)c3cccs3)CC2)c2ccccc2n(Cc2ccc(F)cc2)c1=O
94 to 95 °C | CCOC(=O)[C@@H]1Cc2ccc([N+](=O)[O-])cc2CN1
74 to 77 °C | CC(=O)c1ccc(OCCCCCCCCCCOc2ccccc2)o1
137 to 139 °C | COC(=O)[C@H](Cc1ccc([N+](=O)[O-])cc1)NC(=O)c1ccccc1F
114 to 116 °C | CCOCCOc1c(Cl)c(Sc2ccccc2N)c(OCCOCC)c2c1C(=N)NC2=N

melting point | Structure (SMILES)
121 to 123 °C | CC(C(=O)O)c1ccc(N(C)c2nccs2)cc1 (stereo not given)
186 °C | O=C(NO)[C@H](CNS(=O)(=O)c1ccc(OCc2ccccc2)cc1)N1CCCC1
114 to 116 °C | CC1=C(C(=O)OCCN(C)c2ccccc2)C(c2ccccc2C(F)(F)F)c2c(ccnc2OC(C)C)N1 (stereo not given)
156 to 157 °C | CC1(C)CCC(C)(C)c2c1ccc(CS(=O)(=O)c1ccccc1)c2N
90 to 92 °C | COc1cc(C(C)=O)c(O)cc1N1CCN(Cc2ccccc2)CC1
263 to 264 °C | O=C(O)c1ccc(-c2ccc3cc(OCc4ccccc4)c(C45CC6CC(CC(C6)C4)C5)cc3c2)cc1O
152 to 153 °C | CC(=O)OCC1CC(n2c(I)nc3cc(Cl)c(Cl)cc32)C(OC(C)=O)C1OC(C)=O (stereo not given)
272 to 275 °C | CC(=O)OC1CCc2c(C3=C(c4cn(C)c5ccccc45)C(=O)OC3=O)c3ccccc3n2C1 (stereo not given)
179 to 182 °C | CCN(CC)c1ccc(C2(N(c3ccc(NC(C)=O)cc3)c3ccc(NC(C)=O)cc3)OC(=O)c3ccccc32)c(C)c1 (stereo not given)
175 to 177 °C | C=CCOC(=O)NCc1ccc(C(=O)O)cc1
234 to 235 °C | O=C1CCn2c(-c3ccccc3)nc3cc(Cl)cc1c32
142 to 143 °C | CC(C)c1ccc(O[C@@H](Cc2ccc(O)cc2)C(=O)N2C(=O)OC[C@@H]2Cc2ccccc2)cc1
114 to 115 °C | CN(C)c1cc(CC(=O)O)cc(Cc2nc3c(F)c(F)cc(F)c3s2)c1
239 to 241 °C | CC12CCC3c4ccc(C(=O)O)cc4CCC3C1CCC2C(=O)CC1CCCCC1 (stereo not given)
151 to 152 °C | Cn1c(Br)c(Br)c(C#N)c1Br
133 to 134 °C | CC(ON1C(C)(C)CC2(CC1(C)C)OCC(C)(C)CO2)c1ccc(O)cc1 (stereo not given)
227 to 230 °C | O=C(CCCCc1ccccc1)Nc1ccc(C(=O)O)cc1
63.5 to 65.5 °C | COC(=O)CCSc1cc(C(C)(C)C)c(O)c(C(C)(C)C)c1
111 to 113 °C | COC(=O)c1cc(C(C)=O)ccc1OCCCC(=O)O
> 300 °C | NS(=O)(=O)c1ccc(NC(=O)c2cc(F)ccc2SSc2ccc(F)cc2C(=O)Nc2ccc(S(N)(=O)=O)cc2)cc1
106 to 108 °C | O=C(O)c1ccc(Cl)cc1C(F)(F)F
142 to 144 °C | Nc1ccc(F)cc1-c1nc[nH]n1
94 to 95 °C | CN(O)C(=O)c1ccc(CCCCc2ccccc2C(=O)O)cc1

melting point | Structure (SMILES)
164 to 167 °C | c1cc(Nc2nccc3ccccc23)cc(-n2ccnc2)c1
130 to 131 °C | COC1(c2cc(F)cc(Sc3ccc(/C(C)=N/O)c(OCc4ccccc4)c3)c2)CCOCC1
167 to 168 °C | Cc1[nH]c2ccc(CCN3CCN(C)CC3)cc2c1C(=O)OCc1ccccc1
136 to 138 °C | CC(c1ccccc1)N1C(=O)NCc2c(-c3ccccc3)cccc21 (stereo not given)
233 to 236 °C | COc1cc(C)c2ccc(N)nc2n1
122 to 124 °C | COc1ccc2cc(CC(=O)OCC(C)=O)ccc2c1
216 to 218 °C | Cc1ccc2c(C(=O)C(F)(F)F)c[nH]c2c1
62.4 to 64.1 °C | Nc1ccccc1Nc1ccc(Oc2ccc(C(c3ccc(Oc4ccc(Nc5ccccc5N)cc4)cc3)(C(F)(F)F)C(F)(F)F)cc2)cc1
274 to 275 °C | Cc1cc(C)nc(-n2cnc(S(=O)(=O)Nc3c(Cl)cccc3Cl)n2)n1
191 °C | Cc1cccc(-c2n[nH]cc2-c2ccnc(-c3ccc(OCc4cn(C)cn4)cc3)c2)n1
58 to 60 °C | CC[Si](CC)(CC)CSc1cc(C(C)(C)C)c(O)c(C(C)(C)C)c1
72 °C | CCCCSc1c2sc3ccccc3nc-2ccc1=O
116 to 120 °C | CC(C)(CO)Nc1nc(-c2cccc(Br)c2)cs1
214 to 216 °C | COc1cc(Cc2cnc(N)nc2NC(C)=O)cc(OC)c1C(C)(C)O
172 to 174 °C | CC(C)OC(=O)N1CCC(NC(=O)N2CCn3c(c(C(N)=O)c(C#N)c3-c3ccccc3)C2)CC1
149 to 150 °C | c1cc(-c2ccoc2)cc(-n2cnc3cc(-c4ccoc4)ccc32)c1
74 °C | Cc1ccc(CCCCOCCCCCCNCC(O)c2ccc3c(n2)COC(c2ccccc2)O3)cc1 (stereo not given)
210 °C | CC1CCN(C2C3=CC(OC3=O)C3C(CC4(C)OC4C2O)OC(=O)C3C)CC1 (stereo not given)
85 to 87 °C | COc1ccc(CCN(C)CCCC(C)(C(=O)OC(C)C)c2ccc(OC)c(OC)c2)cc1OC (stereo not given)
144 to 147 °C | CCOc1ccccc1C(=O)Nc1ccc(C(=O)N2CCC(F)(F)/C(=C\C(=O)N3CCOCC3)c3ccccc32)cc1
192 to 194 °C | Nc1nc(-c2cc(Cl)ccc2Cl)nc(N2CCCCC2)n1

Structure (SMILES) | melting point
CCOC(=O)c1nnc2n1-c1sc(Cl)cc1C(c1ccccc1Cl)=NC2 | 180 to 182 °C
Cc1cc(C(C)(C)C)c(O)c(C)c1CSP(=S)(C1CCCCC1)C1CCCCC1 | 113 to 116 °C
N#CC1CN1C(=O)c1ccc(-c2ccccc2)cc1 (stereo not given) | 104 to 106 °C
CCOC(=O)C(NC(C)=O)(C(=O)OCC)C1=Nc2ccc(Br)cc2C(c2ccccn2)=NC1 | 178 to 180 °C
CN1CCN(c2cnc3ccccc3n2)CC1 | 109 to 111 °C
